According to PMC7114147 (Antiviral Research, 2013):

What was measured:
[1] = system: A/Virginia/ATCC3/2009 (2009 pandemic A/H1N1); assay type: cell-based, influenza A virus; conditions: read-out: Antiviral activity (EC50) A/2009pan
[2] = system: A/X-31 (A/H3N2); assay type: cell-based, influenza A virus; conditions: read-out: Antiviral activity (EC50) A/X-31
[3] = system: A/PR/8/34 4 #8 cl3; experiment: microbe, parasite or virus in culture; assay type: cell-based; conditions: Influenza A virus, PR/8, pH 5.7, read-out: Antiviral activity (EC50), 4 #8 cl3
[4] = system: A/PR/8/34 6c #8 cl3; experiment: microbe, parasite or virus in culture; assay type: cell-based; conditions: Influenza A virus, PR/8, pH 5.5, read-out: Antiviral activity (EC50), 6c #8 cl3
[5] = target: S31N mutant A/M2 (Influenza A virus, UniProt P0DOF5, S31N); assay type: biochemical, influenza A/Udorn/72
[6] = target: V27A mutant A/M2 (Influenza A virus, UniProt P0DOF5, V27A); assay type: biochemical, influenza A/Udorn/72
[7] = system: A/H1N1 (A/PR/8/34); experiment: microbe, parasite or virus in culture; assay type: cell-based, influenza A virus; conditions: read-out: Antiviral activity (EC50) A/PR/8/34

SMILES: NC12CC3CC(CC(C3)C1)C2 [Amantadine, amantadine]
- EC50 [1]: 137 ± 10 µM
- EC50 [2]: 61 ± 12 µM
- EC50 [3]: > 250 µM
- EC50 [4]: > 250 µM

SMILES: C1=CC2C3C4C5C=CC4C24CNCC54C13 [Compound 3, 3-azahexacyclo[7.6.0.0^1,5.0^5,12.0^6,10.0^11,15]pentadeca-7,13-diene]
- Activity against S31N mutant A/M2 [5]: inactive
- Activity against V27A mutant A/M2 [6]: inactive

SMILES: CCC(CC)O[C@@H]1C=C(C(=O)O)C[C@H](N)[C@H]1NC(C)=O [Oseltamivir carboxylate]
- EC50 [7]: 21 ± 9 µM
- EC50 [2]: 0.11 ± 0.05 µM

SMILES: NC(=O)c1ncn([C@@H]2O[C@H](CO)[C@@H](O)[C@H]2O)n1 [Ribavirin]
- EC50 [7]: 8.7 ± 0.7 µM
- EC50 [1]: 11 ± 1 µM
- EC50 [2]: 8.8 ± 0.2 µM
- EC50 [3]: 26 ± 4 µM
- EC50 [4]: 24 ± 3 µM

SMILES: CC(N)C12CC3CC(CC(C3)C1)C2 (stereo not drawn) [Rimantadine, rimantadine]
- Activity against S31N mutant A/M2 [5]: inactive
- Activity against V27A mutant A/M2 [6]: inactive
- EC50 [1]: ≥ 158 µM
- EC50 [2]: 7 ± 1.7 µM
- EC50 [3]: > 100 µM
- EC50 [4]: > 100 µM

SMILES: CC(=O)N[C@H]1[C@H]([C@H](O)[C@H](O)CO)OC(C(=O)O)=C[C@@H]1N=C(N)N [Zanamivir]
- EC50 [7]: 6 ± 1.3 µM
- EC50 [2]: 0.16 ± 0.05 µM
